Measurements as given in patent US20160242416A1, “FUNGICIDAL ISOXAZOLINE CARBINOLS” (E I DU PONT DE NEMOURS AND COMPANY, priority 2015, published 2016).

Columns and labels:
[1] = test system: Erysiphe graminis f sp. tritici; experiment: Test G: wheat powdery mildew, preventive spray on wheat seedlings; conditions: 100 = 100% disease control; for Test G rating (% disease control): wheat powdery mildew, 0 = no control; for Test G disease control rating: 10 ppm test solution, 0 = no control relative to controls
Zymoseptoria tritici = experiment: Test E: wheat leaf blotch, preventive spray on wheat seedlings; conditions: 100 = 100% disease control; for Test E rating (% disease control): wheat leaf blotch, 0 = no control; for Test E disease control rating: 10 ppm test solution, 0 = no control relative to controls
Source text: General protocol for preparing test solutions for Tests A-G: the test compounds were first dissolved in acetone in an amount equal to 3% of the final volume and then suspended at the desired concentration (in ppm) in acetone and purified water (50/50 mix by volume) containing 250 ppm of the surfactant PEG400 (polyhydric alcohol esters). The resulting test suspensions were then used in Tests A-G. Compounds were sprayed at a concentration of 50 ppm (*) or 10 ppm to the point of run-off on the test plants, the equivalent of a rate of 200 g/ha or 40 g/ha, respectively.
The test solution was sprayed to the point of run-off on wheat seedlings. The following day the seedlings were inoculated with a spore suspension of Zymoseptoria tritici (the causal agent of wheat leaf blotch) and incubated in a saturated atmosphere at 24° C. for 48 h, and then moved to a growth chamber at 20° C. for 17 days, after which time visual disease ratings were made.
Compounds with an asterisks (*) were applied at a concentration of 50 ppm, otherwise test solutions were applied at 10 ppm.

Botrytis cinerea = experiment: Test B: gray mold, preventive spray on tomato seedlings; conditions: 100 = 100% disease control; for Test B rating (% disease control): gray mold on tomato, 0 = no control; for Test B disease control rating: 10 ppm test solution, 0 = no control relative to controls
Phytophthora infestans = type: in vivo; conditions: 50 ppm (asterisk); tomato late blight; 100 = 100% disease control, 0 = no control
[2] = test system: Puccinia recondita f sp. tritici; experiment: Test F: wheat leaf rust, preventive spray on wheat seedlings; conditions: 100 = 100% disease control; for Test F rating (% disease control): wheat leaf rust, 0 = no control; for Test F disease control rating: 10 ppm test solution, 0 = no control relative to controls
Stagonospora nodorum = experiment: Test D: wheat glume blotch, preventive spray on wheat seedlings; conditions: 100 = 100% disease control; for Test D rating (% disease control): 10 ppm, wheat glume blotch, 0 = no control; for Test D disease control rating: 10 ppm test solution, 0 = no control relative to controls

SMILES	Test G rating (% disease control) ([1]; 10 ppm) [%]	Test D rating (% disease control) (Stagonospora nodorum) [%]	Test E rating (% disease control) (Zymoseptoria tritici; 10 ppm) [%]	Test B rating (% disease control) (Botrytis cinerea; 10 ppm) [%]	Test F rating (% disease control) ([2]; 10 ppm) [%]	further results
OC(Cn1cncn1)(C1=NOC(c2ccc(F)cc2)C1)c1ccc(F)cc1 (single isomer, unassigned) [Compound 119]						Test G rating (% disease control) ([1]; 50 ppm (asterisk)): 100%; Test E rating (% disease control) (Zymoseptoria tritici; 50 ppm (asterisk)): 0%; Test B rating (% disease control) (Botrytis cinerea; 50 ppm (asterisk)): 0%; Test C rating (% disease control) (Phytophthora infestans): 0%; Test F rating (% disease control) ([2]; 50 ppm (asterisk)): 41%
OC(Cn1cncn1)(C1=NOC(Cc2ccc(F)cc2)C1)c1ccc(Cl)cc1 (single isomer, unassigned) [Compound 200]	99	11	16	0	99	
CC(C)(C)C(O)(Cn1cncn1)C1=NOC(CO[Si](C)(C)C(C)(C)C)C1 (single isomer, unassigned) [Compound 9]	64	0	0	0	0	
OC(Cn1cncn1)(C1=NOC(COc2ccc(Cl)cn2)C1)c1ccc(Cl)cc1 (single isomer, unassigned) [Compound 164]	100	95	96	0	100	
OC(Cn1cncn1)(C1=NOC(CSc2ccccc2)C1)c1ccc(Cl)cc1 (single isomer, unassigned) [Compound 50]	94	87	3	19	99	
CC(C)(C)CC(O)(Cn1cncn1)C1=NOC(COc2ccc(Cl)cc2)C1 (single isomer, unassigned) [Compound 173]	97	63	6	0	100	
CC(C)(C)C(O)(Cn1cncn1)C1=NOC(COC2CCCCC2)C1 (single isomer, unassigned) [Compound 91]	56	20	2	0	0	
OC(Cn1cncn1)(C1=NOC(Cc2ccc(Br)cc2)C1)c1ccc(Cl)cc1 (single isomer, unassigned) [Compound 54]	99	87	0	0	100	
CC(C)(C)C(O)(Cn1cncn1)C1=NOC(COc2cccc(Cl)c2)C1 (single isomer, unassigned) [Compound 231]						Test G disease control rating [1]: 99%; Test D disease control rating (Stagonospora nodorum): 100%; Test E disease control rating (Zymoseptoria tritici): 6%; Test B disease control rating (Botrytis cinerea): 80%; Test F disease control rating [2]: 100%
OC(Cn1cncn1)(C1=NOC(COc2ccc(OCc3ccccc3)cc2)C1)c1ccc(Cl)cc1 (single isomer, unassigned) [Compound 70]	76	47	0	28	9	
CC(C)(C)C(O)(Cn1cncn1)C1=NOC(Cn2ccc(C(F)(F)F)n2)C1 (single isomer, unassigned) [Compound 49]	99	82	0	11	99	
OC(Cn1cncn1)(C1=NOC(c2ccc(Cl)cc2)C1)c1ccc(Cl)cc1Cl (single isomer, unassigned) [Compound 141]	84	0	1	0	99	
OC(Cn1cncn1)(C1=NOC(Cn2ccc(C(F)(F)F)n2)C1)c1ccc(Cl)cc1 (single isomer, unassigned) [Compound 195]	100	0	0	0	99	
CC(C)(C)C(O)(Cn1cncn1)C1=NOC(Cc2ccccc2)C1 (single isomer, unassigned) [Compound 87]	98	99	1	83	99	
CC(C)(C)CC1CC(C(O)(Cn2cncn2)C(C)(C)C)=NO1 (single isomer, unassigned) [Compound 77]	13	0	0	0	0	
OC(Cn1cncn1)(C1=NOC(c2ccc(Cl)cc2)C1)c1ccc(C(F)(F)F)cc1 (single isomer, unassigned) [Compound 105]	99	96	8	0	100	
CC(C)(C)C(O)(Cn1cncn1)C1=NOC(Cc2ccc(Br)cc2)C1 (single isomer, unassigned) [Compound 52]	100	100	4	98	100	
CC(C)(C)CC1CC(C(O)(Cn2cncn2)C(C)(C)C)=NO1 (single isomer, unassigned) [Compound 78]	0	0	0	0	0	
CC(C)(C)C(O)(Cn1cncn1)C1=NOC(COc2ccc(OCc3ccccc3)cc2)C1 (single isomer, unassigned) [Compound 72]	56	0	0	19	0	
CC(C)(C)C(O)(Cn1cncn1)C1=NOC(c2cnccn2)C1 (single isomer, unassigned) [Compound 169]	0	9	4	0	0	
CC(C)(C)C(O)(Cn1cncn1)C1=NOC(Cc2ccc(Br)cc2)C1 (single isomer, unassigned) [Compound 53]	99	99	20	70	100	
OC(Cn1cncn1)(C1=NOC(c2ccc(-n3ccc(C(F)(F)F)n3)cc2)C1)c1ccc(Cl)cc1 (single isomer, unassigned) [Compound 148]	100	59	92	0	100	
C[S+]([O-])c1ccc(C2CC(C(O)(Cn3cncn3)c3ccc(Cl)cc3)=NO2)cc1 (single isomer, unassigned) [Compound 112]	69	0	80	0	65	
CCC(C)(C)C(O)(Cn1cncn1)C1=NOC(COc2ccc(Cl)cc2)C1 (single isomer, unassigned) [Compound 193]	97	93	22	9	99	
CC(C)(C)C(O)(Cn1cncn1)C1=NOC(COc2cccc(Br)c2)C1 (single isomer, unassigned) [Compound 233]						Test G disease control rating [1]: 99%; Test D disease control rating (Stagonospora nodorum): 100%; Test E disease control rating (Zymoseptoria tritici): 0%; Test B disease control rating (Botrytis cinerea): 40%; Test F disease control rating [2]: 100%
OC(Cn1cncn1)(C1=NOC(c2ccc(Cl)cc2)C1)C12CC3CC(CC(C3)C1)C2 (single isomer, unassigned) [Compound 40]	48	51	0	0	55	
CC(C)(C)C(O)(Cn1cncn1)C1=NOC(COc2ccc(OC(F)(F)F)cc2)C1 (single isomer, unassigned) [Compound 24]	100	99	0	37	100	
